Earlier results in paper PMC7036871, “Identification and Characterization of pantocin wh-1, a Novel Cyclic Polypeptide Produced by Pantoea dispersa W18” (Molecules, 2020).
Converted amounts (≈) assume the structure as drawn. Read-outs that look alike come from different tables or passages of the source.

System: M. tuberculosis
Design: method as in 8 sources, ref [15],[16] = [15]; PMID 24684906; doi:10.1016/j.chembiol.2014.01.014; 15. Gavrish E. Sit C.S. Cao S. Kandror O. Spoering A. Peoples A. Ling L. Fetterman A. Hughes D. Bissell A. Lassomycin, a ribosomally synthesized cyclic peptide, kills mycobacterium tuberculosis by tar || [16]; PMID 24766844; doi:10.1016/j.chembiol.2014.04.002; 16. Parish T. Targeting mycobacterial proteolytic complexes with natural products Chem. Biol. 2014 21 437 438 10.1016/j.chembiol.2014.04.002 24766844 ||| ref [17] = [17]; PMID 25421483; doi:10.1128/AAC.04054-14; 17. Gao W. Kim J.Y. Anderson J.R. Akopian T. Hong S. Jin Y.Y. Kandror O. Kim J.W. Lee I.A. Lee S.Y. The cyclic peptide ecumicin targeting ClpC1 is active against Mycobacterium tuberculosis in vivo Ant ||| ref [18],[19] = [18]; PMID 21969594; doi:10.1073/pnas.1110385108; 18. Sass P. Josten M. Famulla K. Schiffer G. Sahl H.G. Hamoen L. Brotz-Oesterhelt H. Antibiotic acyldepsipeptides activate ClpP peptidase to degrade the cell division protein FtsZ Proc. Natl. Acad. Sc || [19]; PMID 22123255; doi:10.1128/JB.06142-11; 19. Ollinger J. O’Malley T. Kesicki E.A. Odingo J. Parish T. Validation of the Essential ClpP Protease in Mycobacterium tuberculosis as a Novel Drug Target J. Bacteriol. 2012 194 663 668 10.1128/JB.06 ||| ref [20] = [20]; PMID 22987724; doi:10.1002/emmm.201201689; 20. Hartkoorn R.C. Sala C. Neres J. Pojer F. Magnet S. Mukherjee R. Uplekar S. Boy-Rottger S. Altmann K.H. Cole S.T. Towards a new tuberculosis drug: Pyridomycin-nature’s isoniazid Embo. Mol. Med. 201 ||| ref [21] = [21]; PMID 10747933; doi:10.1074/jbc.M000569200; 21. Kremer L. Douglas J.D. Baulard A.R. Morehouse C. Guy M.R. Alland D. Dover L.G. Lakey J.H. Jacobs W.R. Brennan P.J. Thiolactomycin and related analogues as novel anti-mycobacterial agents targeting ||| ...
Settings: anti-TB, cited from earlier work

For C=C/C(C)=C/[C@@]1(C)SC(=O)C(C)=C1O [Thiolactomycin], the MIC (target β-ketoacyl-ACP synthase, ref [21]) is listed as 92.5 µM (≈ 19.5 µg/mL).
For Cyclomarin A, the MIC (target ClpC1, ref [22],[23]) is given as 0.3 to 2.5 µM.
In the case of Ecumicin, the MIC (target ClpC1, ref [17]) is listed as 0.13 to 0.3 µM.
In the case of Ilamycins, the MIC (target not given, ref [25]) is listed as 0.0098 µM.
For Lassomycin, the MIC (target ClpC1, ref [15],[16]) is listed as 0.42 to 1.57 µM.
In the case of Teixobactin, the MIC (target lipid II, ref [24]) is given as 0.125 µM.
